Consider one substance from patent publication US9814754B2, “Combinations with a backbone-cyclized peptide” (POLYPHOR AG, priority 2012, dated 2017).

Square brackets hold non-standard residues; d marks the D form. dDab = NCC[C@@H](N)C(=O)O; Orn = NCCC[C@H](N)C(=O)O; Dab = NCC[C@H](N)C(=O)O

Common to all, as to assay type: in vivo
The test system of test [1] is Pseudomonas aeruginosa clinical isolate PAX11045. As to the kind of experiment: Murine pneumonia model, compound 1 alone (Reference 1). On the procedure:
Efficacy in Murine Pneumonia Model Against Pseudomonas aeruginosa PAX11045 and Estimation of ED50
The efficacy and ED50 of the compound of formula (I) (“compound 1”) was determined against Pseudomonas aeruginosa clinical isolate PAX11045 in a pneumonia model in mice. Colony counts in the lungs and spleen were determined at 20 hours post treatment.
Fresh overnight colonies of PAX11045 from a 5% Horse Blood Agar plate were suspended in 0.9% sterile saline to approximately 10^8 CFU/ml and further diluted to approximately 5×10^7 CFU/ml. Female mice (DBA/2, outbred, 18-22 g, Charles River) were anesthetized with 0.08 ml of Zoletil (tiletamine+zolazepam) and inoculated via the nose with a pipette with 0.05 ml of the bacteria suspension containing approximately 10^6 CFU. 4 hours after inoculation, the mice were treated orally with 45 μl neurophen (20 mg ibuprofen/ml corresponding to approximately 30 mg/kg) as pain relief.
One vial was further 2-fold diluted with saline to 2.25, 1.125, 0.56 and 0.28 mg/ml. The mice were treated subcutaneously with 0.2 ml in the neck region with a single dose at 4 hours post infection with a dose calculation based on a mean animal weight of 20 g.
Colony counts were determined post inoculation at 4 hours (untreated mice) and 24 hours (treated and vehicle-only treated mice). Immediately after the mice were sacrificed, the lungs and spleens were collected and frozen at −20° C. After thawing, the organs were homogenized in 1 ml 0.9% saline. Each sample was then 10-fold diluted in saline and 20 μl spots were applied on blood agar plates. All agar plates were incubated 18-48 hours at 35° C. in ambient air.

Test [2] relates to Pseudomonas aeruginosa clinical isolate PA18298. In words: Murine pneumonia model, compound 1 in combination with amikacin (Example 4). Conditions: murine lungs. The procedure: The efficacy and ED50 of the compound of formula (I) (“compound 1”) in combination with amikacin was determined against Pseudomonas aeruginosa clinical isolate PA18298 in a pneumonia model in mice. Colony counts in lung were determined at 20 hours post treatment.
Fresh overnight colonies of PA18298 from a 5% Horse Blood Agar plate were suspended in 0.9% sterile saline to approximately 10^8 CFU/ml and further diluted to approximately 5×10^7 CFU/ml. Female mice (DBA/2, outbred, 18-22 g, Charles River) were anesthetized with 0.1 ml of Zoletil and inoculated via the nose with a pipette with 0.05 ml of the bacteria suspension containing approximately 10^6 CFU. 4 hours after inoculation, the mice were treated orally with 45 μl neurophen (20 mg ibuprofen/ml corresponding to approximately 30 mg/kg) as pain relief.
175 mg of amikacin (Sigma) were dissolved in 5 ml 0.9% sterile saline to a concentration of 35 mg/ml and further diluted with saline to 3 mg/ml. The mice were treated subcutaneously with 0.2 ml in the neck region with a single dose at 3 hours post infection corresponding to 30 mg/kg on the basis of a mean animal weight of 20 g.
One vial containing 10 mg of active compound 1 was dissolved in 2 ml 0.9% sterile saline to a concentration of 5 mg/ml and further diluted with saline […], 1, 0.55, 0.275 and 0.137 mg/ml. The mice were treated subcutaneously with 0.2 ml in the neck region with a single dose at 4 hours post infection with a dose calculation based on a mean animal weight of 20 g. Colistin was used as a control in the same manner with a fixed dose of 20 mg/kg.
(§1) Colony counts were determined post inoculation at 4 hours (untreated mice) and 24 hours (treated and vehicle-only treated mice). Immediately after the mice were sacrificed, the lungs were collected and frozen at −20° C. After thawing, the organs were homogenized in 1 ml 0.9% saline. Each sample was then 10 fold diluted in saline and 20 μl spots were applied on blood agar plates. All agar plates were incubated 18-24 hours at 35° C. in ambient air.
The CFU/ml in the inoculum was determined to 7.4 log10 CFU/ml corresponding to 6.17 log10 CFU/mouse.
At 4 hours after inoculation the mean log 10 CFU/lung was 5.06 and the CFU level declined to 1.55 mean log 10 CFU/lung after 24 hours in the vehicle group.

The test system of test [3] is Pseudomonas aeruginosa clinical isolate PA9349. As to the kind of experiment: Murine pneumonia model, compound 1 in combination with ciprofloxacin (Example 3). The procedure: Colony counts in lung were determined at 20 hours post treatment.
Fresh overnight colonies of PA9349 from a 5% Horse Blood Agar plate were suspended in 0.9% sterile saline to approximately 10^8 CFU/ml and further diluted to approximately 10^7 CFU/ml. Female mice (C57BL/6 […], outbred, 20-25 g, Hellenic Pasteur Institute) were anesthetized with ether and inoculated via the nose with a pipette with 0.05 ml of the bacteria suspension containing approximately 10^6 CFU. After inoculation, mice were treated with paracetamol suppositories as a pain relief.
The mice were treated subcutaneously with 0.2 ml in the neck region with a single dose at 3 hours post infection corresponding to 20 mg/kg on the basis of a mean animal weight of 20 g.
1 vial was further diluted with saline to 1, 0.8 and 0.4 mg/ml. The mice were treated subcutaneously with 0.25 ml (25 mg/kg dose) or 0.2 ml (for all other doses) in the neck region with a single dose at 4 hours post infection with a dose calculation based on a mean animal weight of 20 g.
as §1

The mark [4] stands for this setting: compound 1 alone, s.c., murine lungs.
[5] abbreviates: in presence of 30 mg/kg amikacin.
Setting [6] is: in presence of 20 mg/kg ciprofloxacin, murine lungs.

For the substance “cyclo(TWI[Dab][Orn][dDab][Dab]W[Dab][Dab]AS[dP]P) [compound 1]”, the Bottom level was −2.2 log10 CFU/ml in test [1] (compound 1 alone, s.c. single dose 4 h post infection, murine lungs); −3.82 log10 CFU/ml in test [2] (setting [5]); −4.17 log10 CFU/ml in test [3] (setting [6]). In addition, the Top level in test [1] (compound 1 alone, s.c. single dose 4 h post infection, murine lungs, sigmoidal dose-response model) is given as 1.3 log10 CFU/ml; in test [2] (compound 1 s.c. in presence of 30 mg/kg amikacin (s.c., 3 h post infection)), −3.03 log10 CFU/ml; in test [3] (compound 1 s.c. in presence of 20 mg/kg ciprofloxacin (s.c., 3 h post infection), murine lungs), −0.21 log10 CFU/ml. The figures for the “1 log killing dose” value in test [1] (setting [4]) and in test [3] (setting [6]) were 8.1 mg/kg and 0.45 mg/kg, respectively. Besides, the “2 log killing dose” value in test [1] (setting [4]) is 20 mg/kg; in test [3] (setting [6]), 1.00 mg/kg. Further, the Emax came to 3.5 log10 CFU/ml in test [1] (setting [4]), 0.79 log10 CFU/ml in test [2] (setting [5]) and 3.96 log10 CFU/ml in test [3] (setting [6]). In test [1] (setting [4]), this substance showed a Static dose of 1.55 mg/kg. Moreover, the ED50 (commonly the dose at which the effect has come halfway, by size or by number of responders) in test [1] (compound 1 alone, s.c., murine lungs, sigmoidal dose-response model (variable slope)) is 4.33 mg/kg; in test [2] (in presence of fixed dose of 30 mg/kg amikacin), 9.1 mg/kg; in test [3] (in presence of fixed dose of 20 mg/kg ciprofloxacin, murine lungs) it was 1.55 mg/kg. Further, the “CFU levels compared to vehicle treatment” value was “concentration dependent significant reduction of the CFU levels” in test [1] (compound 1 s.c. dose series, both organs (lungs and spleen), p<0.001 for the higher concentrations); “significant reduction of the CFU levels” in test [3] (combination of compound 1 at 1.88-25 mg/kg and ciprofloxacin 20 mg/kg, lung, p<0.001). Moreover, the “effect on bacterial loads” value in test [3] (5.5 mg/kg alone, lung, p<0.001) was “significant effect on reducing the bacterial loads”. For the same substance, the 3log killing dose in test [3] (setting [6]) was 1.82 mg/kg.
